Consider 17 compounds from US20250114345A1, “COMPOUNDS AND COMPOSITIONS AS CBP/P300 DEGRADERS AND USES THEREOF” (Oncopia Therapeutics, Inc. d/b/a/ SK Life Science Labs, priority 2023, published 2025).

This assay has as its target T1, p300 (Homo sapiens, UniProt Q09472).
T1 construct: host or cells: A549 P300 HiBit cells
Description: P300 degradation, HiBit technology in A549 P300 HiBit cells (2 h). It is filed as cell-based. The conditions noted are these: 2 hrs post treatment; for Dmax: A549, A549 P300 HiBit cells; for DC50: A549 P300 HiBit cells. The protocol:
p300 and CBP degradation potency and Dmax were determined using in cell western (ICW) assay technology in H1299 cells or HiBit technology in A549 HiBit cells.
A549 P300 HiBit and A549 CBP HiBit cells were plated in separate 384-well, TC treated, white-opaque, flat-bottomed microplate. Cells were plated at a cell density of 0.2×10^4 cells per well in assay media comprised of F-12K, 10% heat inactivated FBS, and 1% penicillin/streptomycin. Assay microplates containing HiBit cells were placed in a 37° C., 5% CO2, tissue culture incubator and left to equilibrate overnight. The next day cells were treated with serial dilutions of test compound made up of 10 mM stock solutions in DMSO. 384-Well plates containing treated cells were then placed back into a 37° C., 5% CO2, tissue culture incubator. Assay microplates containing A549 P300 HiBit cells were incubated for 2 hrs post treatment before P300 destruction was assessed, while microplates containing A549 CBP HiBit cells were incubated for 24 hrs post treatment before CBP destruction was determined. On the day of each assay time point, microplates were removed from the tissue culture incubator and prepared HiBit Lytic detection buffer (Promega, cat #N3O40) was added to each plate. Plates were covered with aluminum foil and incubated for ten minutes at room temperature on an orbital shaker. After incubation, luminescent signal of each plate was measured using the Envision instrument (Perkin Elmer).

A word on the Dmax: it is the largest share of the target that was removed. A low value points to a partial loss of target. One may read the DC50 as the concentration at which degradation of the target reaches its halfway point. Read a low DC50 as degradation at low concentration.

T1 sequence (Q09472 whole entry): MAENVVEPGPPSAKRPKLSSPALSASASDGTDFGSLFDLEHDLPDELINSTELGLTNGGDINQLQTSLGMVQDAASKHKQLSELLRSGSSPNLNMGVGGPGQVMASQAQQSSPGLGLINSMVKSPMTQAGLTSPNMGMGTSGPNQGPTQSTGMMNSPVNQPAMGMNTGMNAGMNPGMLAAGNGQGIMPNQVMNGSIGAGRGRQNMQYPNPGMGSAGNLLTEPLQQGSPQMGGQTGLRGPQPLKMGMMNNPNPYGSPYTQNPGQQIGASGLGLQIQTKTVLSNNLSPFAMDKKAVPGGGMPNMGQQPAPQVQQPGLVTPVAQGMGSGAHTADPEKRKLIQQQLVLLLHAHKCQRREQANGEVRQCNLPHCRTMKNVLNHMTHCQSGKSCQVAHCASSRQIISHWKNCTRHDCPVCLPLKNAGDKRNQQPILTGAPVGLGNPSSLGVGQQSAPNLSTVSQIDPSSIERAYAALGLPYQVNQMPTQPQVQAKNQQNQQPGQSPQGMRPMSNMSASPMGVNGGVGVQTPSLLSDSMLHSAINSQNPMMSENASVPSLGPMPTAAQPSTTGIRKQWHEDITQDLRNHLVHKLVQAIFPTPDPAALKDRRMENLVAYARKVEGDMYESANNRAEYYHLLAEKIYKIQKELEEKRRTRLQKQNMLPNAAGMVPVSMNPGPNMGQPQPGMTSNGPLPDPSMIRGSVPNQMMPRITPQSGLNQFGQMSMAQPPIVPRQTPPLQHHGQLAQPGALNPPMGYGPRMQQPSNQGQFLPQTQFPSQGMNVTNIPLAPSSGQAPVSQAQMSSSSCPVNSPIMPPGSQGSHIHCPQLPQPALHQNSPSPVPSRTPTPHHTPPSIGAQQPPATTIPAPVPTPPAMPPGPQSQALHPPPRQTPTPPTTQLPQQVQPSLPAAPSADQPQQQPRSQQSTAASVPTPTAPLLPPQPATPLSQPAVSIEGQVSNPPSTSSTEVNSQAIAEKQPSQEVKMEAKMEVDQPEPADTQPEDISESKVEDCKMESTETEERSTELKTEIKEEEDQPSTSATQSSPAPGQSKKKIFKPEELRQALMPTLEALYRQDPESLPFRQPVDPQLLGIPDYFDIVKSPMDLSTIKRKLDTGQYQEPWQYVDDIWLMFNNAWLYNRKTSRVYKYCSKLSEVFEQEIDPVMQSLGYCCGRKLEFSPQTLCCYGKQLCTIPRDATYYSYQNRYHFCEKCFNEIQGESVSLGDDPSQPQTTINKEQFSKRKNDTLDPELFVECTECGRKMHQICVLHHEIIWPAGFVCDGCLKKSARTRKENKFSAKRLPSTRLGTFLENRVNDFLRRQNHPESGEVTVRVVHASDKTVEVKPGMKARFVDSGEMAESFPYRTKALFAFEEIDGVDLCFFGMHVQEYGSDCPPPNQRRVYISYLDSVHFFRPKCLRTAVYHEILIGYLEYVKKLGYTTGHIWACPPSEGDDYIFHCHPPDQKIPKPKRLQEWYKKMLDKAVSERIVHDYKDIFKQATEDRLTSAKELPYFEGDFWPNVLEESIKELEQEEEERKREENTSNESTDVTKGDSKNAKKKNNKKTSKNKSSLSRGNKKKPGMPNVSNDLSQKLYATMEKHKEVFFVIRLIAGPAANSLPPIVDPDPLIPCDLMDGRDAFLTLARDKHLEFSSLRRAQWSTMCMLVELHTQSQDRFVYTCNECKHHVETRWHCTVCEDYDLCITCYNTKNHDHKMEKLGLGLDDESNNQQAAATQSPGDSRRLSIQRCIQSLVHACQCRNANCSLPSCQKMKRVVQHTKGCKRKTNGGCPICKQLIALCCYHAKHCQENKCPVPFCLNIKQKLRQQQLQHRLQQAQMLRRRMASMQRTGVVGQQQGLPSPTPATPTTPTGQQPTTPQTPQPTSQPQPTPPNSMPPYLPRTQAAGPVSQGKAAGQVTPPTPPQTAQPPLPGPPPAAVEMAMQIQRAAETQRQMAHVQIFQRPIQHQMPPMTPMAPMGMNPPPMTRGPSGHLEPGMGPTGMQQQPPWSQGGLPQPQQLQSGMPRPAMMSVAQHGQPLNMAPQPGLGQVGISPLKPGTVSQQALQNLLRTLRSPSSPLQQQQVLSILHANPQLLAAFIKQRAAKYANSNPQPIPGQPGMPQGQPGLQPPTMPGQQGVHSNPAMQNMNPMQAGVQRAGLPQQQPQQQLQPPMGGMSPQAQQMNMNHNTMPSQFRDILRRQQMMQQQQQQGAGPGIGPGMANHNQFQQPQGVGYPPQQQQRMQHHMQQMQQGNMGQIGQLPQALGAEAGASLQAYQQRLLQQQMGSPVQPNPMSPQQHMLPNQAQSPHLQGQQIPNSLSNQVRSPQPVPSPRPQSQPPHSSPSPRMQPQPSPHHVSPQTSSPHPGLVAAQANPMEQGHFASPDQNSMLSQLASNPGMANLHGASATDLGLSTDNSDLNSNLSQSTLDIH

As to `Cc1cc(-c2ccc(N(C)c3cc(C4=CCOCC4)c4c(c3)n(C)c(=O)n4C)cn2)cnc1C(=O)NCC#Cc1cccc(NC2CCC(=O)NC2=O)c1` (stereo not shown) [Example A40, 5-((7-(3,6-dihydro-2H-pyran-4-yl)-1,3-dimethyl-2-oxo-2,3-dihydro-1H-benzo[d]imidazol-5-yl)(methyl)amino)-N-(3-(3-((2,6-dioxopiperidin-3-yl)amino)phenyl)prop-2-yn-1-yl)-5′-methyl-[2,3′-bipyridine]-6′-carboxamide], the maximal degradation (Dmax) is over 80% and the DC50 lay in the range of 1 to 9.9 nM.
`Cc1cc(-c2ccc(N(C)c3cc(C(C)C)c4c(c3)n(C)c(=O)n4C)cc2C(F)F)cnc1C(=O)NCC#Cc1cccc(NC2CCC(=O)NC2=O)c1` (stereo not shown) [Example A41, 5-(2-(difluoromethyl)-4-((7-isopropyl-1,3-dimethyl-2-oxo-2,3-dihydro-1H-benzo[d]imidazol-5-yl) (methyl)amino)phenyl)-N-(3-(3-((2,6-dioxopiperidin-3-yl)amino)phenyl)-prop-2-yn-1-yl)-3-methylpicolinamide]: the Dmax is over 80% and the 50% degradation concentration (DC50) was in the range of 10 to 99 nM.
The corresponding values for `Cc1cc(-n2ccc(N(C)c3cc(C(C)C)c4c(c3)n(C)c(=O)n4C)cc2=O)cnc1C(=O)NCC#Cc1cccc(NC2CCC(=O)NC2=O)c1` (stereo not shown) [Example A42, N-(3-(3-((2,6-dioxopiperidin-3-yl)amino)phenyl)prop-2-yn-1-yl)-4-((7-isopropyl-1,3-dimethyl-2-oxo-2,3-dihydro-1H-benzo [d]imidazol-5-yl)(methyl)amino)-5′-methyl-2-oxo-2H-[1,3′-bipyridine]-6′-carboxamide] are over 80% and 1 to 9.9 nM.
`Cc1cc(-c2ccc(N(C)c3cc(C(C)C)c4c(c3)n(C)c(=O)n4C)cc2)cnc1C(=O)NCC#Cc1cccc(NC2CCC(=O)NC2=O)c1` (stereo not shown) [Example A43, N-(3-(3-((2,6-dioxopiperidin-3-yl)amino)phenyl)prop-2-yn-1-yl)-5-(4-((7-isopropyl-1,3-dimethyl-2-oxo-2,3-dihydro-1H-benzo [d]imidazol-5-yl) (methyl)amino)phenyl)-3-methylpicolinamide] had a Dmax of 60 to 79% and a half-maximal degradation concentration (DC50) of 100 to 999 nM.
On to `Cc1cc(-c2ccc(N(C)c3cc(C(C)C)c4c(c3)n(C)c(=O)n4C)cc2Cl)cnc1C(=O)NCC#Cc1cccc(NC2CCC(=O)NC2=O)c1` (stereo not shown) [Example A44, 5-(2-chloro-4-((7-isopropyl-1,3-dimethyl-2-oxo-2,3-dihydro-1H-benzo[d]imidazol-5-yl)(methyl)amino)phenyl)-N-(3-(3-((2,6-dioxopiperidin-3-yl)amino)phenyl)prop-2-yn-1-yl)-3-methylpicolinamide], for which the maximal degradation (Dmax) was in the range of 60 to 79% and the DC50 fell in the range of 100 to 999 nM.
Compound `Cc1cc(-c2ccc(N(C)c3cc(C(C)C)c4c(c3)n(C)c(=O)n4C)cc2C#N)cnc1C(=O)NCC#Cc1cccc(NC2CCC(=O)NC2=O)c1` (stereo not shown) [Example A46, 5-(2-cyano-4-((7-isopropyl-1,3-dimethyl-2-oxo-2,3-dihydro-1H-benzo[d]imidazol-5-yl)(methyl)amino)phenyl)-N-(3-(3-((2,6-dioxopiperidin-3-yl)amino)phenyl)prop-2-yn-1-yl)-3-methylpicolinamide] gave a Dmax of over 80% and a half-maximal degradation concentration (DC50) of 10 to 99 nM.
For `Cc1cc(-c2ncc(N(C)c3cc(C(C)C)c4c(c3)n(C)c(=O)n4C)cc2F)cnc1C(=O)NCC#Cc1cccc(NC2CCC(=O)NC2=O)c1` (stereo not shown) [Example A47, N-(3-(3-((2,6-dioxopiperidin-3-yl)amino)phenyl)prop-2-yn-1-yl)-3-fluoro-5-((7-isopropyl-1,3-dimethyl-2-oxo-2,3-dihydro-1H-benzo [d]imidazol-5-yl)(methyl)amino)-5′-methyl-[2,3′-bipyridine]-6′-carboxamide] the same measures were over 80% and 10 to 99 nM.
The corresponding values for `Cc1cc(-c2ccc(N(C)c3cc(C(C)C)c4c(c3)n(C)c(=O)n4C)cc2C(F)(F)F)cnc1C(=O)NCC#Cc1cccc(NC2CCC(=O)NC2=O)c1` (stereo not shown) [Example A48, N-(3-(3-((2,6-dioxopiperidin-3-yl)amino)phenyl)prop-2-yn-1-yl)-5-(4-((7-isopropyl-1,3-dimethyl-2-oxo-2,3-dihydro-1H-benzo [d]imidazol-5-yl)(methyl)amino)-2-(trifluoromethyl)phenyl)-3-methylpicolinamide] are 60 to 79% and 10 to 99 nM.
For the compound `COc1cc(-c2ccc(N(C)c3cc(C(C)C)c4c(c3)n(C)c(=O)n4C)cn2)cnc1C(=O)NCC#Cc1cccc(NC2CCC(=O)NC2=O)c1` (stereo not shown) [Example A49, N-(3-(3-((2,6-dioxopiperidin-3-yl)amino)phenyl)prop-2-yn-1-yl)-5-((7-isopropyl-1,3-dimethyl-2-oxo-2,3-dihydro-1H-benzo [d]imidazol-5-yl) (methyl)amino)-5′-methoxy-[2,3′-bipyridine]-6′-carboxamide], the Dmax is over 80% and the DC50 lay in the range of 10 to 99 nM.
Consider `Cc1cc(-c2cnc(N(C)c3cc(C(C)C)c4c(c3)n(C)c(=O)n4C)cn2)cnc1C(=O)NCC#Cc1cccc(NC2CCC(=O)NC2=O)c1` (stereo not shown) [Example A50, N-(3-(3-((2,6-dioxopiperidin-3-yl)amino)phenyl)prop-2-yn-1-yl)-5-(5-((7-isopropyl-1,3-dimethyl-2-oxo-2,3-dihydro-1H-benzo [d]imidazol-5-yl)(methyl)amino)pyrazin-2-yl)-3-methylpicolinamide], for which the Dmax was over 80% and the DC50 was in the range of 10 to 99 nM.
Regarding `Cc1cc(-c2ccc(N(c3cc(C(C)C)c4c(c3)n(C)c(=O)n4C)C(F)(F)F)cn2)cnc1C(=O)NCC#Cc1cccc(NC2CCC(=O)NC2=O)c1` (stereo not shown) [Example A52, N-(3-(3-((2,6-dioxopiperidin-3-yl)amino)phenyl)prop-2-yn-1-yl)-5-((7-isopropyl-1,3-dimethyl-2-oxo-2,3-dihydro-1H-benzo [d]imidazol-5-yl) (trifluoromethyl)amino)-5′-methyl-[2,3′-bipyridine]-6′-carboxamide], the maximal degradation (Dmax) was in the range of 60 to 79% and the DC50 was in the range of 100 to 999 nM.
On to `Cc1cc(-c2ccc(Nc3cc4c(c(C(C)C)n3)n(C)c(=O)n4C)cn2)cnc1C(=O)NCC#Cc1ccc2occ(C3CCC(=O)NC3=O)c2c1` (stereo not shown) [Example A56, N-(3-(3-(2,6-dioxopiperidin-3-yl)benzofuran-5-yl)prop-2-yn-1-yl)-5-((4-isopropyl-1,3-dimethyl-2-oxo-2,3-dihydro-1H-imidazo[4,5-c]pyridin-6-yl)amino)-5′-methyl-[2,3′-bipyridine]-6′-carboxamide], for which the greatest degradation seen (Dmax) was under 20% and the DC50 was over 1000 nM.
As for `CC(C)c1cc(N(C)c2cnc(-c3ccc(C(=O)NCC#Cc4ccc5occ(C6CCC(=O)NC6=O)c5c4)nc3)cn2)cc2c1n(C)c(=O)n2C` (stereo not shown) [Example A59, N-(3-(3-(2,6-dioxopiperidin-3-yl)benzofuran-5-yl)prop-2-yn-1-yl)-5-(5-((7-isopropyl-1,3-dimethyl-2-oxo-2,3-dihydro-1H-benzo [d]imidazol-5-yl)(methyl)amino)pyrazin-2-yl)picolinamide], the Dmax is over 80% and the DC50 was in the range of 1 to 9.9 nM.
With `Cc1cc(-c2ccc(N(C)c3cc4c(c(C(C)C)n3)n(C)c(=O)n4C)cn2)cnc1C(=O)NCC#Cc1ccc2occ(C3CCC(=O)NC3=O)c2c1` (stereo not shown) [Example A60, N-(3-(3-(2,6-dioxopiperidin-3-yl)benzofuran-5-yl)prop-2-yn-1-yl)-5-((4-isopropyl-1,3-dimethyl-2-oxo-2,3-dihydro-1H-imidazo[4,5-c]pyridin-6-yl)(methyl)amino)-5′-methyl-[2,3′-bipyridine]-6′-carboxamide], the Dmax is under 20% and the DC50 was over 1000 nM.
With `Cc1cc(-c2cc3cccc(-c4ccc5c(c4)n(C)c(=O)n5C)c3cn2)cnc1C(=O)NCC#Cc1ccc2occ([C@H]3CCC(=O)NC3=O)c2c1` [Example A62, (R)-5-(8-(1,3-dimethyl-2-oxo-2,3-dihydro-1H-benzo[d]imidazol-5-yl)isoquinolin-3-yl)-N-(3-(3-(2,6-dioxo-piperidin-3-yl)benzofuran-5-yl)prop-2-yn-1-yl)-3-methylpicolinamide], the maximal degradation (Dmax) is over 80% and the DC50 is 1 to 9.9 nM.
`[2H]C([2H])([2H])N(c1cnc(-c2cnc(C(=O)NCC#Cc3ccc4occ(C5CCC(=O)NC5=O)c4c3)c(C)c2)nc1)c1cc(C(C)C)c2c(c1)n(C)c(=O)n2C` (stereo not shown) [Example A65, N-(3-(3-(2,6-dioxopiperidin-3-yl)benzofuran-5-yl)prop-2-yn-1-yl)-5-(5-((7-isopropyl-1,3-dimethyl-2-oxo-2,3-dihydro-1H-benzo [d]imidazol-5-yl)(methyl-d3)amino)pyrimidin-2-yl)-3-methylpicolinamide] showed a Dmax of over 80% and a DC50 of 1 to 9.9 nM.
Turning to `CN1C2CCC1CN(c1nc(-c3cccc4cc(-c5ccc(C(=O)NCC#Cc6ccc7occ(C8CCC(=O)NC8=O)c7c6)nc5)ncc34)cc3c1n(C)c(=O)n3C)C2` (stereo not shown) [Example A67, 5-(8-(1,3-dimethyl-4-(8-methyl-3,8-diazabicyclo[3.2.1]octan-3-yl)-2-oxo-2,3-dihydro-1H-imidazo [4,5-c]pyridin-6-yl)isoquinolin-3-yl)-N-(3-(3-(2,6-dioxopiperidin-3-yl)benzofuran-5-yl)prop-2-yn-1-yl)picolinamide], the Dmax lay in the range of 60 to 79% and the DC50 lay in the range of 1 to 9.9 nM.
